The source of these data is patent US5232941A, “Caffeic acid derivatives and pharmaceutical compositions containing the same” (Suntory Limited, priority 1990, dated 1993).

Bounds are passed on as bounds.

The target in experiment [1] is T1, 12-lipoxygenase (Rattus norvegicus, UniProt F1LQ70).
T1 construct: the frozen platelet rich plasma was allowed to melt and then subjected to ultrasonic treatment in ice water so that an enzyme solution was obtained; from tissue; host or cells: rat platelets (washed, frozen, sonicated; crude enzyme solution)
T1 sequence (F1LQ70 1-663): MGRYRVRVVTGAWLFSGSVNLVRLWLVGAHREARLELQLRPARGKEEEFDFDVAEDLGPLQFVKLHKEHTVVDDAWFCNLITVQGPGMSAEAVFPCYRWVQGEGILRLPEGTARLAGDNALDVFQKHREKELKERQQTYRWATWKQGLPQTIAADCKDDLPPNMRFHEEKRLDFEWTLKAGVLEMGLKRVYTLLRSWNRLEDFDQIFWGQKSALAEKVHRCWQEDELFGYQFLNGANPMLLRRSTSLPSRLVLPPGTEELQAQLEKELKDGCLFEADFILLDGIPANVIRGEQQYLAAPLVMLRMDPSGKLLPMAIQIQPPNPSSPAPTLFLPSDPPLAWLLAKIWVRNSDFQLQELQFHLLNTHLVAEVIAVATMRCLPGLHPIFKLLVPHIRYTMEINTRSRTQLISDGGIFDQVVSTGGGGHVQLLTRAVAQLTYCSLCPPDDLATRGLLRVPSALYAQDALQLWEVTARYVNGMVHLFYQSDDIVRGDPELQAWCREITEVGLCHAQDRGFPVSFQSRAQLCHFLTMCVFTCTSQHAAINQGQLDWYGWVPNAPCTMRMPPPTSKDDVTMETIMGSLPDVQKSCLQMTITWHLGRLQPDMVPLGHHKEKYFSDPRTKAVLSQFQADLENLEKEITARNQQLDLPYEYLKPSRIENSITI
As to the kind of experiment: 12-Lipoxygenase Inhibition Activity (In Vitro), 12-HETE production by rat platelet enzyme solution. Format: biochemical. As to conditions: [14C]-arachidonic acid, 5 min pre-incubation at 37° C., 5 min reaction, read-out: Inhibition rate (%) of 12-HETE production; for inhibition at 0.1 µM: 10^-7 M; for inhibition at 1 µM: 10^-6 M. As for the experimental part:
The 12-lipoxygenase inhibition activity of each test compound according to the present invention was measured in the following manner.
Firstly, blood was collected from the heart of a rat (while using sodium citrate as an anticoagulant), and platelet rich plasma was prepared by a method known per se in the art. The platelet rich plasma was washed twice with a isotonic buffer (A) [134 mM of NaCl, 5 mM of D-glucose, 1 mM of EDTA, 1 mM of EGTA, 15 mM of tris-HCl (pH 7.4)] and was then frozen and stored at -80° C. Prior to a pharmacological test, the frozen platelet rich plasma was allowed to melt and then subjected to ultrasonic treatment in ice water so that an enzyme solution was obtained. To the isotonic buffer (A), 1 mM of GSH, the test compound (adjusted to have the final concentrations of 1 μM and 0.1 μM) and the enzyme solution (300-500 μg of protein) were added. Subsequent to pre-incubation at 37° C. for 5 minutes, [^14 C]-arachidonic acid (0.05 μCi) (final concentration: […]) was added to react it for 5 minutes. After the reaction was terminated, the reaction mixture was spread over a thin layer plate of silica gel to conduct autoradiography. 12-HETE was identified and a reduction in its production was determined as an index for its 12-lipoxygenase inhibition activity.

Experiment [2] has as its system 12-lipoxygenase. To be noted: conventionally known compound; cited from earlier work.
Experiment [3] has as its system 12-Lipoxygenase in platelets. As to the kind of experiment: 12-Lipoxygenase Inhibition Activity in Platelets (Extro Vivo). Set-up: species or system SD rat. To be noted: 1.0 mg/kg i.v., blood 10 min after administration; base preparation group = 100%. As for the experimental part: Under anesthesia with pentobarbital, an SD rat (8 week-old, male) was intravenously administered with a polyethylene glycol solution containing 1.0 mg/kg of a test compound. Ten minutes after the administration, blood was collected from the abdominal vena cava, and the inhibitory activity was measured as in the above test (1).
Setting at 100% the amount of 12-HETE of the group in which a base preparation was administered instead of the drugs, the results, namely, the amount of 12-HETE obtained when each test drug was administered was indicated in terms of %.

Consider `CCOC(=O)Oc1ccc(C=C(C#N)C(=O)OCC)cc1OC(=O)OCC` [Compound 6, ethyl 2-cyano-3-(3,4-diethoxycarbonyloxyphenyl)-2-propenoate], for which, at 12-lipoxygenase [1], the inhibition at 0.1 µM was 60.3%.

Consider `CCOC(=O)Oc1ccc(C=C(C#N)C(=O)OCCCc2ccccn2)cc1OC(=O)OCC` [Compound 12, 3-(2-pyridyl)-propyl 2-cyano-3-(3,4-diethoxycarbonyloxyphenyl)-2-propenoate], for which, on 12-lipoxygenase [1], the inhibition at 1 µM was found to be 68.4% and the inhibition at 0.1 µM stood at 16.3%. For `CCC[C@@H](OC(=O)C(C#N)=Cc1ccc(OC(=O)OCC)c(OC(=O)OCC)c1)c1ccccc1` [Compound 8, (R)-(+)-1-phenylbutyl 2-cyano-3-(3,4-diethoxycarbonyloxyphenyl)-2-propenoate], in that order: 65.1% and 9.4%.

`CCOC(=O)Oc1ccc(C=C(C#N)C(=O)OCCc2cccs2)cc1OC(=O)OCC` [Compound 18, 2-(2-thienyl)-ethyl 2-cyano-3-(3,4-diethoxycarbonyloxyphenyl)-2-propenoate]: the inhibition at 0.1 µM on 12-lipoxygenase [1] came to 65.8%. `COC(=O)Oc1ccc(C=C(C#N)C(=O)OCCc2cccs2)cc1OC(=O)OC` [Compound 19, 2-(2-thienyl)-ethyl 2-cyano-3-(3,4-dimethoxycarbonyloxyphenyl)-2-propenoate]: at 12-lipoxygenase [1], the inhibition at 1 µM was found to be 50.8% and the inhibition at 0.1 µM is 4.6%. For `CCOC(=O)Oc1cc(C=C(C#N)C(=O)OCCc2cccs2)ccc1O` [Compound 23, 2-(2-thienyl)-ethyl 2-cyano-3-(3-ethoxycarbonyloxy-4-hydroxyphenyl)-2-propenoate], in that order: 84.5% and 64.5%. For `CCC[C@H](OC(=O)C(C#N)=Cc1ccc(OC(=O)OCC)c(OC(=O)OCC)c1)c1ccccc1` [Compound 7, (S)-(-)-1-phenylbutyl 2-cyano-3-(3,4-diethoxycarbonyloxyphenyl)-2-propenoate], in that order: 75.6% and 40.8%. With `O=c1cc(-c2ccccc2)oc2cc(O)c(O)c(O)c12` [baicalein], the 12-lipoxygenase inhibitory action in the experiment on 12-lipoxygenase [2] was 12-lipoxygenase inhibitory action. For the compound `N#CC(=Cc1ccc2oc(=O)oc2c1)C(=O)OCCc1ccccc1` [Compound 35, phenethyl 2-cyano-3-(3,4-cyclic dioxolonylphenyl)-2-propenoate], at 12-lipoxygenase [1], the inhibition at 1 µM came to 82.9% and the inhibition at 0.1 µM amounted to 56.6%. For `CCOC(=O)Oc1ccc(C=C(C#N)C(=O)OCCc2ccsc2)cc1OC(=O)OCC` [Compound 10, 2-(3-thienyl)-ethyl 2-cyano-3-(3,4-diethoxycarbonyloxyphenyl)-2-propenoate], in that order: 79.3% and 38.7%. For `CCOC(=O)Oc1ccc(C=C(C#N)C(=O)OCc2ccco2)cc1OC(=O)OCC` [Compound 11, 2-furylmethyl 2-cyano-3-(3,4-diethoxycarbonyloxyphenyl)-2-propenoate], in that order: 53.8% and 23.5%. For `N#CC(=Cc1ccc(OC(=O)OCc2ccccc2)c(OC(=O)OCc2ccccc2)c1)C(=O)OCCc1cccs1` [Compound 21, 2-(2-thienyl)-ethyl 2-cyano-3-(3,4-dibenzyloxycarbonyloxyphenyl)-2-propenoate], in that order: 41.6% and less than 0%. `CCOC(=O)Oc1ccc(C=C(C#N)C(=O)OCc2ccsc2)cc1OC(=O)OCC` [Compound 14, 3-thienylmethyl 2-cyano-3-(3,4-diethoxycarbonyloxyphenyl)-2-propenoate]: on 12-lipoxygenase [1], the inhibition at 1 µM was 64.6% and the inhibition at 0.1 µM is 34.6%. Consider `CCOC(=O)Oc1cc(C=C(C#N)C(=O)OCCc2ccccc2)ccc1O` [Compound 17, phenethyl 2-cyano-3-(3-ethoxycarbonyloxy-4-hydroxyphenyl)-2-propenoate], for which, at 12-lipoxygenase [1], the inhibition at 1 µM amounted to 75.9% and the inhibition at 0.1 µM was 59.3%. For the same compound, the “inhibitory effect on amount of 12-HETE” value in experiment [3] is given as 18%. Take `CCOC(=O)Oc1ccc(C=C(C#N)C(=O)OCCCc2cccnc2)cc1OC(=O)OCC` [Compound 13, 3-(3-pyridyl)-propyl 2-cyano-3-(3,4-diethoxycarbonyloxyphenyl)-2-propenoate]: at 12-lipoxygenase [1], the inhibition at 1 µM is 40.8% and the inhibition at 0.1 µM is less than 0%.

As for `CCOC(=O)Oc1cc(C=C(C#N)C(=O)OCCc2cccs2)cc(OC(=O)OCC)c1OC(=O)OCC` [Compound 29, 2-(2-thienyl)-ethyl 2-cyano-3-(3,4,5-triethoxycarbonyloxyphenyl)-2-propenoate], on 12-lipoxygenase [1], the inhibition at 1 µM worked out at 59.2% and the inhibition at 0.1 µM was 25.1%. On the same counts, the results for `CC(C)COC(=O)Oc1ccc(C=C(C#N)C(=O)OCCc2cccs2)cc1OC(=O)OCC(C)C` [Compound 20, 2-(2-thienyl)-ethyl 2-cyano-3-(3,4-diisobutoxycarbonyloxyphenyl)-2-propenoate] are 63.4% and 41.2%. For `CCOC(=O)Oc1ccc(C=C(C#N)C(=O)OC(C)Cc2ccccc2)cc1OC(=O)OCC` (centres unmarked) [Compound 9, 1-methyl-2-phenylethyl 2-cyano-3-(3,4-diethoxycarbonyloxyphenyl)-2-propenoate], in that order: 71.8% and 4.2%. Regarding `CCOC(=O)Oc1ccc(C=C(C#N)C(=O)OCCc2ccccc2)cc1OC(=O)OCC` [Compound 1, phenethyl 2-cyano-3-(3,4-diethoxycarbonyloxyphenyl)-2-propenoate], at 12-lipoxygenase [1], the inhibition at 1 µM is 85.4% and the inhibition at 0.1 µM was 52.9%. In experiment [3], the “inhibitory effect on amount of 12-HETE” value stood at 30%. Consider `N#CC(=Cc1ccc2oc(=O)oc2c1)C(=O)OCCc1cccs1` [Compound 34, 2-(2-thienyl)-ethyl 2-cyano-3-(3,4-cyclic dioxolonylphenyl)-2-propenoate], for which the inhibition at 0.1 µM on 12-lipoxygenase [1] came to 91.5%.

On to `CCCCCCCOC(=O)Oc1ccc(C=C(C#N)C(=O)OCCc2cccs2)cc1OC(=O)OCCCCCCC` [Compound 22, 2-(2-thienyl)-ethyl 2-cyano-3-(3,4-diheptoxycarbonyloxyphenyl)-2-propenoate], for which, on 12-lipoxygenase [1], the inhibition at 1 µM is 27.6% and the inhibition at 0.1 µM was found to be 14%.

For the compound `N#CC(=Cc1ccc2oc(=O)oc2c1)C(=O)Oc1ccccc1` [Compound 36, phenyl 2-cyano-3-(3,4-cyclic dioxolonylphenyl)-2-propenoate], the inhibition at 0.1 µM at 12-lipoxygenase [1] came to 75.6%.

The inhibition is the drop in the measured response relative to a control, in per cent.
